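Compound exposure: 48 hours, 5 concentrations, 96-well plates. Abbreviation: GI50, concentration required for 50% inhibition of growth.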 Calls of active or inactive are those of the source. Rule as the data show it: active = GI50 up to about 1.1 µM and inactive = higher.
Experiments:
Test in all cases: NCI anticancer screen, dose series, 48 h
[1] = test system: IGROV-1
[2] = test system: Malme-3M
[3] = test system: SK-OV-3
[4] = test system: TK-10
[5] = test system: SK-MEL-5
[6] = test system: A498
[7] = test system: EKVX
[8] = test system: SW-620
[9] = test system: HCT-15
[10] = test system: UACC-257
[11] = test system: SF-295
[12] = test system: CAKI-1
[13] = test system: KM12
[14] = test system: HOP-92
[15] = test system: SF-268
[16] = test system: SNB-19
[17] = test system: MDA-N
[18] = test system: OVCAR-3
[19] = test system: NCI-H460

| Structure (SMILES) | GI50 [1] | GI50 [2] | GI50 [3] | GI50 [4] | GI50 [5] | GI50 [6] | GI50 [7] | GI50 [8] | GI50 [9] | GI50 [10] | GI50 [11] | GI50 [12] | GI50 [13] | GI50 [14] | GI50 [15] | GI50 [16] | GI50 [17] | GI50 [18] | GI50 [19] |
| --- | --- | --- | --- | --- | --- | --- | --- | --- | --- | --- | --- | --- | --- | --- | --- | --- | --- | --- | --- |
| CC(=O)CC1(C)OC(N)=C(C#N)C1(C#N)C#N (stereo unspecified) | > 100 µM (inactive) | 80 µM (inactive) | > 100 µM (inactive) | > 100 µM (inactive) | 42.1 µM (inactive) | > 100 µM (inactive) | > 100 µM (inactive) | > 100 µM (inactive) | 43.9 µM | > 100 µM (inactive) | > 100 µM (inactive) | 59.4 µM (inactive) | > 100 µM (inactive) | 74.6 µM (inactive) | > 100 µM (inactive) | > 100 µM (inactive) | > 100 µM (inactive) |  |  |
| [O-]c1c[n+](-c2ccccc2)no1 | > 100 µM (inactive) | > 100 µM (inactive) | > 100 µM (inactive) | > 100 µM (inactive) | > 100 µM (inactive) | > 100 µM (inactive) | > 100 µM (inactive) | > 100 µM (inactive) | > 100 µM | > 100 µM (inactive) | > 100 µM (inactive) | > 100 µM (inactive) | > 100 µM (inactive) | > 100 µM (inactive) | > 100 µM (inactive) | > 100 µM (inactive) | > 100 µM (inactive) | > 100 µM (inactive) | > 100 µM (inactive) |
| CN(C)CCSCCO | > 100 µM (inactive) | > 100 µM (inactive) | > 100 µM (inactive) | > 100 µM (inactive) | > 100 µM (inactive) | > 100 µM (inactive) | > 100 µM (inactive) | > 100 µM (inactive) | > 100 µM | > 100 µM (inactive) | > 100 µM (inactive) | > 100 µM (inactive) | > 100 µM (inactive) | > 100 µM (inactive) | > 100 µM (inactive) | > 100 µM (inactive) | > 100 µM (inactive) | > 100 µM (inactive) | > 100 µM (inactive) |
| COc1ccc(S(=O)(=O)Nc2ccc(-c3csc(N4C(=O)/C(=C/c5ccccc5[N+](=O)[O-])N=C4c4ccccc4)n3)cc2)cc1Cl | 16.1 µM (inactive) | 58.9 µM (inactive) | > 100 µM (inactive) | 53.3 µM (inactive) | 43.2 µM (inactive) | 23.8 µM (inactive) |  | 46 µM (inactive) | 29 µM | 38.6 µM (inactive) | 47 µM (inactive) | > 100 µM (inactive) | 50.6 µM (inactive) | 23.3 µM (inactive) | 38.8 µM (inactive) | 59 µM (inactive) | 60 µM (inactive) | 26 µM (inactive) | 40.8 µM (inactive) |
| COc1ccc(C(c2ccccc2)N2C(=O)CCC2C(=O)O)cc1OC (stereo unspecified) | > 100 µM (inactive) | > 100 µM (inactive) | > 100 µM (inactive) | > 100 µM (inactive) | > 100 µM (inactive) | > 100 µM (inactive) | > 100 µM (inactive) | > 100 µM (inactive) | > 100 µM | > 100 µM (inactive) | > 100 µM (inactive) | > 100 µM (inactive) | > 100 µM (inactive) | > 100 µM (inactive) | > 100 µM (inactive) | > 100 µM (inactive) | > 100 µM (inactive) | > 100 µM (inactive) | > 100 µM (inactive) |
| Cc1cc2nc3c(C#N)c(C)c(CCCl)c(Cl)n3c2cc1C | 2.09 µM (inactive) | 2.96 µM (inactive) | > 28.6 µM (inactive) | 2.18 µM (inactive) | 4.39 µM (inactive) | 2.92 µM (inactive) | 10.5 µM (inactive) | 2.34 µM (inactive) | 1.87 µM | 2.23 µM (inactive) | 3.49 µM (inactive) | 2.88 µM (inactive) | 6.1 µM (inactive) | 2.04 µM (inactive) | 2.36 µM (inactive) | 10.8 µM (inactive) | 2.61 µM (inactive) | 1.75 µM (inactive) | 5.77 µM (inactive) |
| O=[N+]([O-])/C(C(Cl)=C(Cl)Cl)=C(\N1CCOCC1)n1nnc2ccccc21 |  | 18.4 µM (inactive) | 27.2 µM (inactive) | 29.3 µM (inactive) | 17.6 µM (inactive) | 16.9 µM (inactive) | 17.9 µM (inactive) |  | 15.4 µM | 20.7 µM (inactive) | 17.7 µM (inactive) | 17.7 µM (inactive) | 20.2 µM (inactive) | 18.3 µM (inactive) | 18.3 µM (inactive) | 14.3 µM (inactive) | 19.6 µM (inactive) | 19.8 µM (inactive) | 19.4 µM (inactive) |
| Cc1cc(N(CCC#N)CCC#N)ccc1C(=N/NC(=O)c1cc(Cl)ccc1O)/N=N/c1cccc(Cl)c1 | 1.4 µM (inactive) | 14.2 µM (inactive) | 20.6 µM (inactive) | 16.5 µM (inactive) | 13.7 µM (inactive) | 28.4 µM (inactive) | 14.4 µM (inactive) | 17.8 µM (inactive) | 6.62 µM | 15.2 µM (inactive) | 22 µM (inactive) | 17.9 µM (inactive) | 11.2 µM (inactive) | 11.8 µM (inactive) | 11.8 µM (inactive) | 22.9 µM (inactive) | 29.5 µM (inactive) | 3.56 µM (inactive) | 6.27 µM (inactive) |
| O=C1CCN(CCC(F)(F)C(F)(F)C(F)(F)C(F)(F)C(F)(F)C(F)(F)F)C(=S)N1CCC(F)(F)C(F)(F)C(F)(F)C(F)(F)C(F)(F)C(F)(F)F | > 100 µM (inactive) | > 100 µM (inactive) | > 100 µM (inactive) | > 100 µM (inactive) | > 100 µM (inactive) | > 100 µM (inactive) | > 100 µM (inactive) | > 100 µM (inactive) |  | > 100 µM (inactive) | > 100 µM (inactive) | > 100 µM (inactive) | > 100 µM (inactive) | > 100 µM (inactive) | > 100 µM (inactive) | > 100 µM (inactive) | > 100 µM (inactive) | > 100 µM (inactive) | > 100 µM (inactive) |
| COc1cc(CN2CCCCC2)cc2cc(C(=O)O)c(=O)oc12 | > 100 µM (inactive) | > 100 µM (inactive) | > 100 µM (inactive) | > 100 µM (inactive) | > 100 µM (inactive) | > 100 µM (inactive) | > 100 µM (inactive) | > 100 µM (inactive) | > 100 µM | > 100 µM (inactive) | > 100 µM (inactive) | > 100 µM (inactive) | > 100 µM (inactive) | > 100 µM (inactive) | > 100 µM (inactive) | > 100 µM (inactive) | > 100 µM (inactive) | > 100 µM (inactive) | > 100 µM (inactive) |
| NCC#CCNCCCN1CC1 | > 100 µM (inactive) | > 100 µM (inactive) | > 100 µM (inactive) | > 100 µM (inactive) | > 100 µM (inactive) | > 100 µM (inactive) | > 100 µM (inactive) | > 100 µM (inactive) | > 100 µM | > 100 µM (inactive) | > 100 µM (inactive) | > 100 µM (inactive) | > 100 µM (inactive) | > 100 µM (inactive) | > 100 µM (inactive) | > 100 µM (inactive) | > 100 µM (inactive) | > 100 µM (inactive) | > 100 µM (inactive) |
| Cc1ccc(C2(O)CS/C(=N\C34CC5CC(CC(C5)C3)C4)N2C(P(=O)(O)O)P(=O)(O)O)cc1 (stereo unspecified) | > 100 µM (inactive) | 63.7 µM (inactive) | 72.8 µM (inactive) | > 100 µM (inactive) |  | 82.8 µM (inactive) | > 100 µM (inactive) | > 100 µM (inactive) | > 100 µM |  | 44.4 µM (inactive) | > 100 µM (inactive) | > 100 µM (inactive) | > 100 µM (inactive) | > 100 µM (inactive) | 82.2 µM (inactive) | 42 µM (inactive) | > 100 µM (inactive) | 41.3 µM (inactive) |
| Nc1ncn(C2OC(COP(=O)(O)O)C(O)C2O)c(=O)n1 (stereo unspecified) | > 100 µM (inactive) | > 81.8 µM (inactive) | > 100 µM (inactive) | > 100 µM (inactive) | > 100 µM (inactive) | > 100 µM (inactive) | > 58.2 µM (inactive) | > 100 µM (inactive) | > 100 µM | > 100 µM (inactive) | > 100 µM (inactive) | > 71.9 µM (inactive) | > 100 µM (inactive) | > 100 µM (inactive) | > 92 µM (inactive) | > 100 µM (inactive) | > 100 µM (inactive) | > 100 µM (inactive) | 52.8 µM (inactive) |
| C=C(C)/C=C/C(O)[C@](C)(O)[C@H]1[C@H](O)C[C@@]2(C)[C@@H]3CCc4c(cc(OC5OC(CO)C(O)C(O)C5O)c(O)c4C)C3(C)C(=O)C[C@]12C (stereo partly specified) | > 100 µM (inactive) | > 100 µM (inactive) | > 100 µM (inactive) | > 100 µM (inactive) | > 100 µM (inactive) | > 100 µM (inactive) | > 100 µM (inactive) | > 100 µM (inactive) | > 100 µM | > 100 µM (inactive) | > 100 µM (inactive) | > 100 µM (inactive) | > 100 µM (inactive) | > 100 µM (inactive) | > 100 µM (inactive) | > 100 µM (inactive) | > 100 µM (inactive) | > 100 µM (inactive) | > 100 µM (inactive) |
| CC1(C)CCC[C@]2(C)[C@@H](C=O)C(C=O)=CC[C@@H]12 [POLYGODIAL] | 19 µM (inactive) | 15.2 µM (inactive) | 30.8 µM (inactive) | 25.9 µM (inactive) | 15.6 µM (inactive) | 40.9 µM (inactive) | 24.8 µM (inactive) | 35.4 µM (inactive) | 17 µM | 17.1 µM (inactive) | 21.9 µM (inactive) | 6.82 µM (inactive) | 14.7 µM (inactive) | 20.6 µM (inactive) | 15.3 µM (inactive) | 18.2 µM (inactive) | 13.6 µM (inactive) | 14.9 µM (inactive) |  |

Reference: ChEMBL document CHEMBL1201862, “PubChem BioAssay data set” (2004)
